This is an account of results in ChEMBL document CHEMBL1132533, “Synthesis and evaluation of hydroxyproline-derived isoprenyltransferase inhibitors” (Bioorg Med Chem Lett, 1999).

The target in test [1] is Protein farnesyltransferase (Bos taurus, UniProt P29702+P49355). As to the kind of experiment: Inhibitory concentration was evaluated against Farnesyltransferase in the farnesylation of H-ras protein. The test is classed as protein-complex assay.
In test [2] the target is Geranylgeranyl transferase type I (Bos taurus, UniProt P29702+Q5EAD5). The test is described as follows: In vitro inhibitory activity against Geranylgeranyl transferase in the geranylgeranylation of H-ras-CAIL protein. Type of test: protein-complex assay.
For test [3], the target named is Protein farnesyltransferase (Mus musculus, UniProt Q61239+Q8K2I1). As to the kind of experiment: Inhibitory concentration against Farnesyltransferase for Farnesylation of H-ras protein InNIH 3T3 cells transformed with activated H-ras. Type of test: cell-based, NIH3T3.
A short description of test [4]: In vitro inhibitory activity against Geranylgeranyl transferase in the geranylgeranylation of Rap1A protein protein in NIH 3T3 cells transformed with activated H-ras. To be noted: nih3t3. The test is classed as cell-based, Mus musculus.

`CCCc1ccccc1O[C@H]1C[C@@H](C(=O)N[C@@H](CCSC)C(=O)O)N(C/C=C/[C@@H](N)CS)C1`: the results for the IC50 in test [1] and in test [2] were 210 nM and 170 nM, respectively.

Turning to `CSCC[C@H](NC(=O)[C@@H]1C[C@H](Oc2ccccc2)CN1C[C@H](/C=C/[C@@H](N)CS)C(C)C)C(=O)O`, the IC50 (usually the point on the concentration scale where inhibition reaches its midpoint) in test [1] came out at 17 nM; in test [2] it was 150 nM.

Turning to `COC(=O)[C@H](CCSC)NC(=O)[C@@H]1C[C@H](Oc2ccc(-c3ccccc3)cc2)CN1C/C=C/[C@@H](N)CS`, the IC50 was determined as 3300 nM in test [3] and 3200 nM in test [4].

On to `COC(=O)[C@@H](CCSC)NC(=O)[C@@H]1C[C@H](Oc2ccccc2)CN1C/C=C/[C@@H](N)CS`, for which the IC50 turned out to be 5300 nM in test [3] and 21900 nM in test [4].

Take `CSCC[C@H](NC(=O)[C@@H]1C[C@H](Oc2ccc(C(C)C)cc2)CN1C/C=C/[C@@H](N)CS)C(=O)O`: the IC50 in test [1] amounted to 82 nM; in test [2] it was 210 nM.

In the case of `CSCC[C@H](NC(=O)[C@H](/C=C\[C@@H](/C=C/[C@@H](N)CS)C(C)C)Cc1ccccc1)C(=O)O`, the IC50 was 370 nM in test [3], 26 nM in test [1], 1 nM in test [2] and above 100000 nM in test [4].

As for `COC(=O)[C@H](CCSC)NC(=O)[C@H]1C[C@H](Oc2ccccc2)CN1C/C=C/[C@@H](N)CS`, the IC50 in test [3] is above 50000 nM.

Turning to `COC(=O)[C@H](CCSC)NC(=O)[C@@H]1C[C@H](Oc2ccccc2)CN1C(=O)CCC[C@@H](N)CS`, the IC50 in test [3] was 2000 nM; in test [4], above 50000 nM.

On to `COC(=O)[C@H](CCSC)NC(=O)[C@@H]1C[C@@H](Oc2ccccc2)CN1C/C=C/[C@@H](N)CS`, for which the IC50 in test [3] and in test [4] was above 50000 nM throughout.

Take `COC(=O)[C@H](CCSC)NC(=O)[C@@H]1C[C@H](Oc2ccccc2)CN1C[C@H](/C=C/[C@@H](N)CS)C(C)C`: the IC50 in test [3] was 40 nM; in test [4], above 25000 nM.

As for `CSCC[C@H](NC(=O)[C@@H]1C[C@H](Oc2ccc(-c3ccccc3)cc2)CN1C/C=C/[C@@H](N)CS)C(=O)O`, the IC50 is 35 nM in test [1] and 250 nM in test [2].

Consider `CCCCc1ccc(O[C@H]2C[C@@H](C(=O)N[C@@H](CCSC)C(=O)O)N(C/C=C/[C@@H](N)CS)C2)cc1`, for which the half-maximal inhibitory concentration (IC50) in test [1] is 87 nM; in test [2], 180 nM.

For `CSCC[C@H](NC(=O)[C@@H]1C[C@H](Oc2cccc3c2CCCC3)CN1C/C=C/[C@@H](N)CS)C(=O)O`, the IC50 turned out to be 47 nM in test [1] and 89 nM in test [2].

For the compound `CCCCc1ccc(O[C@H]2C[C@@H](C(=O)N[C@@H](CCSC)C(=O)OC)N(C/C=C/[C@@H](N)CS)C2)cc1`, the figures for the IC50 in test [3] and in test [4] were 3200 nM and 3100 nM, respectively.

For the compound `CSCC[C@H](NC(=O)[C@@H]1C[C@H](Oc2ccc(C(F)(F)F)cc2)CN1C/C=C/[C@@H](N)CS)C(=O)O`, the IC50 in test [1] and in test [2] was 110 nM in each case.

For the compound `CSCC[C@H](NC(=O)[C@@H]1C[C@H](Oc2ccccc2)CN1CCCC[C@@H](N)CS)C(=O)O`, the IC50 in test [1] turned out to be 20 nM; in test [2], 3300 nM.

For the compound `COC(=O)[C@H](CCSC)NC(=O)[C@@H]1C[C@H](Oc2ccccc2)CN1CCCC[C@@H](N)CS`, the IC50 in test [3] was 350 nM; in test [4], above 50000 nM.

With `CSCC[C@H](NC(=O)[C@@H]1C[C@H](Oc2ccccc2)CN1C(=O)[C@H](/C=C/[C@@H](N)CS)C(C)C)C(=O)O`, the IC50 was 18 nM in test [1] and 11 nM in test [2].

Regarding `CSCC[C@H](NC(=O)[C@@H]1C[C@H](Oc2ccccc2)CN1C(=O)CCC[C@@H](N)CS)C(=O)O`, the IC50 worked out at 2 nM in test [1] and 100 nM in test [2].

For the compound `COC(=O)[C@H](CCSC)NC(=O)[C@@H]1C[C@H](Oc2cccc3ccccc23)CN1C/C=C/C(N)CS` (some centres not stated), the IC50 was 22500 nM in test [3] and above 50000 nM in test [4].

In the case of `COC(=O)[C@H](CCSC)NC(=O)[C@@H]1C[C@H](Oc2cccc3c2CCCC3)CN1C/C=C/C(N)CS` (some centres not stated), the IC50 was above 10000 nM in test [3] and 3100 nM in test [4].

In the case of `COC(=O)[C@H](CCSC)NC(=O)[C@@H]1C[C@H](Oc2ccccc2)CN1CC/C=C/[C@@H](N)CS`, the IC50 in test [3] was 490 nM; in test [4] it was above 50000 nM.

With `CSCC[C@H](NC(=O)[C@@H]1C[C@@H](Oc2ccccc2)CN1C/C=C/[C@@H](N)CS)C(=O)O`, the IC50 in test [1] turned out to be 4000 nM; in test [2], 8000 nM.

As for `COC(=O)[C@H](CCSC)NC(=O)[C@@H]1C[C@H](Oc2ccc(OC)c(OC)c2)CN1C/C=C/[C@@H](N)CS`, the IC50 in test [3] and in test [4] was above 50000 nM throughout.

With `COC(=O)[C@H](CCSC)NC(=O)[C@@H]1C[C@H](Oc2ccccc2)CN1C(=O)[C@H](/C=C/[C@@H](N)CS)C(C)C`, the IC50 is 840 nM in test [3] and above 50000 nM in test [4].

In the case of `COC(=O)[C@H](CCSC)NC(=O)[C@@H]1C[C@H](Oc2ccc(C(C)C)cc2)CN1C/C=C/[C@@H](N)CS`, the IC50 amounted to 3000 nM in test [3] and 390 nM in test [4].

For `COC(=O)[C@H](CCSC)NC(=O)[C@@H]1C[C@H](Oc2ccc(C(F)(F)F)cc2)CN1C/C=C/[C@@H](N)CS`, the IC50 in test [3] and in test [4] was above 50000 nM each time.

With `COc1ccc(O[C@H]2CC(C(=O)NC(CCSC)C(=O)O)N(C/C=C/[C@@H](N)CS)C2)cc1OC` (single isomer, unassigned), the results for the IC50 in test [1] and in test [2] were 450 nM and 67000 nM, respectively.

Turning to `CSCC[C@H](NC(=O)[C@@H]1C[C@H](Oc2cccc3ccccc23)CN1C/C=C/C(N)CS)C(=O)O` (some centres not stated), the IC50 is 100 nM in test [1] and 200 nM in test [2].

With `CSCC[C@@H](NC(=O)[C@H]1C[C@H](Oc2ccccc2)CN1C/C=C/[C@@H](N)CS)C(=O)O`, the values for the IC50 in test [1] and in test [2] were 3300 nM and 11000 nM, respectively.

In the case of `CCCc1ccccc1O[C@H]1C[C@H](C(=O)N[C@H](CCSC)C(=O)OC)N(C/C=C/[C@@H](N)CS)C1`, the IC50 in test [3] and in test [4] was above 10000 nM throughout.

For the compound `CSCCC(NC(=O)[C@@H]1C[C@H](Oc2ccccc2)CN1C/C=C/[C@@H](N)CS)C(=O)O` (single isomer, unassigned), the IC50 in test [1] amounted to 57 nM; in test [2] it was 53 nM.

On to `CSCC[C@H](NC(=O)[C@@H]1C[C@H](Oc2ccccc2)CN1CC/C=C/[C@@H](N)CS)C(=O)O`, for which the IC50 in test [1] is 20 nM; in test [2], 570 nM.
